Consider 24 compounds from patent publication US9643967B2, “Pyrrolo[3,2-c]pyridine derivatives as TLR inhibitors” (TAKEDA PHARMACEUTICAL COMPANY LIMITED, priority 2013, dated 2017).

For this assay, the target named is T1, hTLR9 (Homo sapiens, UniProt Q9NR96).
T1 construct: expressed in transfected cells; host or cells: HEK-Blue-hTLR9 cells (HEK293)
T1 sequence (Q9NR96 26-1032): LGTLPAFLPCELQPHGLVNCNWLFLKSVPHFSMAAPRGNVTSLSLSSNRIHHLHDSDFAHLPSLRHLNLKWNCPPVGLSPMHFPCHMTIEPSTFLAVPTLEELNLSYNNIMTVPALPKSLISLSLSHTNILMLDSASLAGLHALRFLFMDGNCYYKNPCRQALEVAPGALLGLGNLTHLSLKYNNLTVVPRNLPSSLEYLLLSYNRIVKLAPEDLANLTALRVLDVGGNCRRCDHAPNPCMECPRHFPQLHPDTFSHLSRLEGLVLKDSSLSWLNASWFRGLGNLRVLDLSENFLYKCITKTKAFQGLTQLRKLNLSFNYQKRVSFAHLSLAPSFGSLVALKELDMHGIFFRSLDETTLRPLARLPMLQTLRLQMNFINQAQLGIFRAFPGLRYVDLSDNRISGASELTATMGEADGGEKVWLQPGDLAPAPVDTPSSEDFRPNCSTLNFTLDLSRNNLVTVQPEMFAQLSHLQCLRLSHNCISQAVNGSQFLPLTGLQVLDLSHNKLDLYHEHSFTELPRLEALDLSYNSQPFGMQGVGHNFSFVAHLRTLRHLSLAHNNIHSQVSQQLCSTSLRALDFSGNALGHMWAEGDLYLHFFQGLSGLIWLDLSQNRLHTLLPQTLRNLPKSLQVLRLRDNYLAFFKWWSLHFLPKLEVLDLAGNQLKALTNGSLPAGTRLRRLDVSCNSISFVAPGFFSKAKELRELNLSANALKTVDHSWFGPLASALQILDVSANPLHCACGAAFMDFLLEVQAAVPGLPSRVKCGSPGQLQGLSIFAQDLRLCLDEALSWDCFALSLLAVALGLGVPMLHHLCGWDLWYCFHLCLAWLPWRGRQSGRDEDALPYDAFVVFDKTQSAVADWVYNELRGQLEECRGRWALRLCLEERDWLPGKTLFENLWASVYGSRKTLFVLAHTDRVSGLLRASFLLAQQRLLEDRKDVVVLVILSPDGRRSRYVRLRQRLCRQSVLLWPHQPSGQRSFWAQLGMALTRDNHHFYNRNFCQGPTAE
The assay can be described thus: hTLR9 antagonism (SEAP inhibition assay) in HEK-Blue-hTLR9 (HEK293) cells, ODN-2006 stimulated. Type of assay: cell-based. Conditions: HEK-Blue hTLR9, 1 μM; SEAP, HEK-Blue-hTLR9 cells; read-out: hTLR9 inhibitory activity (% at 1 μM).

Take `CC(C)N1CCN(c2ccc(-c3nccc4[nH]c(CN5CCC[C@@H]5C(=O)O)cc34)cc2)CC1` [Example A74, (2R)-1-[[4-[4-(4-isopropylpiperazin-1-yl)phenyl]-1H-pyrrolo[3,2-c]pyridin-2-yl]methyl]pyrrolidine-2-carboxylic acid]: the inhibition at 1 µM stood at 89.4%. As for `CC(C)N1CC=C(c2ccc(-c3nccc4[nH]c(CN5CCOCC5)cc34)cn2)CC1` [Example A52, 4-[[4-[6-(1-isopropyl-3,6-dihydro-2H-pyridin-4-yl)-3-pyridyl]-1H-pyrrolo[3,2-c]pyridin-2-yl]methyl]morpholine], the figure is 84.5%; as for `Cc1nc(-c2ccc(N3CCN(C)CC3)cc2)c2cc(CCN3CCOCC3)[nH]c2c1C` [Example B7, 4-[2-[6,7-dimethyl-4-[4-(4-methylpiperazin-1-yl)phenyl]-1H-pyrrolo[3,2-c]pyridin-2-yl]ethyl]morpholine], 81.6%; as for `CCN1CCN(c2ccc(-c3nc(C)c(C)c4[nH]c(CCN5CCOCC5)cc34)cc2)CC1` [Example B8, 4-[2-[4-[4-(4-ethylpiperazin-1-yl)phenyl]-6,7-dimethyl-1H-pyrrolo[3,2-c]pyridin-2-yl]ethyl]morpholine], 93.7%.

On to `Cc1nc(-c2ccc(N3CCN(C(C)C)CC3)cc2)c2cc(CN3CCCCC3)[nH]c2c1C` [Example A39, 4-[4-(4-isopropylpiperazin-1-yl)phenyl]-6,7-dimethyl-2-(1-piperidylmethyl)-1H-pyrrolo[3,2-c]pyridine], for which the inhibition at 1 µM came out at 74.3%. As to `Cc1cc2c(cc(CCN3CCOCC3)n2C)c(-c2ccc(N3CCN(C(C)C)CC3)cc2C(F)(F)F)n1` [Example B17, 4-[2-[4-[4-(4-isopropylpiperazin-1-yl)-2-(trifluoromethyl)phenyl]-1,6-dimethyl-pyrrolo[3,2-c]pyridin-2-yl]ethyl]morpholine], the inhibition at 1 µM was determined as 91.5%. As for `Cc1cc2c(cc(CCN3CCOCC3)n2C)c(-c2ccc(N3CCN(C(C)C)CC3)cc2)n1` [Example B11, 4-[2-[4-[4-(4-isopropylpiperazin-1-yl)phenyl]-1,6-dimethyl-pyrrolo[3,2-c]pyridin-2-yl]ethyl]morpholine], the figure is 80%; as for `CN1CCN(c2ccc(-c3nccc4[nH]c(CN5CCOCC5)cc34)cc2)CC1` [Example A2, 4-[[4-[4-(4-methylpiperazin-1-yl)phenyl]-1H-pyrrolo[3,2-c]pyridin-2-yl]methyl] morpholine], 100%. As for `c1cc2[nH]c(CN3CCOCC3)cc2c(-c2ccc(N3CCNCC3)cc2)n1` [Example A42, 4-[[4-(4-(piperazin-1-yl)phenyl)-1H-pyrrolo[3,2-c]pyridin-2-yl]methyl] morpholine], the figure is 96%. The value for `CN1CCN(c2ccc(-c3nc(C4CC4)cc4[nH]c(CN5CCOCC5)cc34)cc2)CC1` [Example A34, 4-[[6-cyclopropyl-4-[4-(4-methylpiperazin-1-yl)phenyl]-1H-pyrrolo[3,2-c]pyridin-2-yl]methyl] morpholine] was 82%. Consider `CN1CCN(c2cccc(-c3nccc4[nH]c(CN5CCOCC5)cc34)c2)CC1` [Example A61, 4-[[4-[3-(4-methylpiperazin-1-yl)phenyl]-1H-pyrrolo[3,2-c]pyridin-2-yl]methyl]morpholine], for which the inhibition at 1 µM was 89.5%.

Turning to `COc1cc(-c2nc(C)cc3c2cc(CCN2CCOCC2)n3C)ccc1N1CCN(C(C)C)CC1` [Example B22, 4-[2-[4-[4-(4-isopropylpiperazin-1-yl)-3-methoxy-phenyl]-1,6-dimethyl-pyrrolo[3,2-c]pyridin-2-yl]ethyl]morpholine], the inhibition at 1 µM is 99.7%. The value for `CCN1CCN(c2ccc(-c3nc(C)cc4[nH]c(CN5CCOCC5)cc34)cc2)CC1` [Example A5, 4-[[4-[4-(4-ethylpiperazin-1-yl)phenyl]-6-methyl-1H-pyrrolo[3,2-c]pyridin-2-yl]methyl] morpholine] was 100%; that for `CN1CCN(c2ccc(-c3nccc4[nH]c(CCCN5CCOCC5)cc34)cc2)CC1` [Example C2, 4-[3-[4-[4-(4-methylpiperazin-1-yl)phenyl]-1H-pyrrolo[3,2-c]pyridin-2-yl]propyl]morpholine] was 100%. The value for `Cc1cc2[nH]c(CCCN3CCOCC3)cc2c(-c2ccc(N3CCN(C(C)C)CC3)cc2)n1` [Example C3, 4-[3-[4-[4-(4-isopropylpiperazin-1-yl)phenyl]-6-methyl-1H-pyrrolo[3,2-c]pyridin-2-yl]propyl]morpholine] was 94.8%.

Take `CC(C)N1CCN(Cc2ccc(-c3nccc4[nH]c(CN5CCOCC5)cc34)cc2)CC1` [Example A55, 4-[[4-[4-[(4-isopropylpiperazin-1-yl)methyl]phenyl]-1H-pyrrolo[3,2-c]pyridin-2-yl]methyl]morpholine]: the inhibition at 1 µM came out at 96.5%. The value for `Cc1cc2c(cc(CCN3CCOCC3)n2C)c(-c2cccc(N3CCN(C(C)C)CC3)c2)n1` [Example B21, 4-[2-[4-[3-(4-isopropylpiperazin-1-yl)phenyl]-1,6-dimethyl-pyrrolo[3,2-c]pyridin-2-yl]ethyl]morpholine] was 100%; that for `Cc1cc2c(cc(CCN3CCOCC3)n2C)c(C2CCC(N3CCN(C(C)C)CC3)CC2)n1` (stereo not drawn) [Example B26, 4-[2-[4-[4-(4-isopropylpiperazin-1-yl)cyclohexyl]-1,6-dimethyl-pyrrolo[3,2-c]pyridin-2-yl]ethyl]morpholine] was 89.9%.

Consider `Cc1cc2c(cc(CCN3CCOCC3)n2C)c(-c2ccc(N3CCN(C(C)C)[C@@H](C)C3)cc2)n1` [Example B23, 4-[2-[4-[4-[(3S)-4-isopropyl-3-methyl-piperazin-1-yl]phenyl]-1,6-dimethyl-pyrrolo[3,2-c]pyridin-2-yl]ethyl]morpholine], for which the inhibition at 1 µM was determined as 99.2%.

For `Cc1cc2[nH]c(CN3CCC4(CC3)CC(C)C4)cc2c(-c2ccc(N3CCN(C(C)C)CC3)cc2)n1` [Example A30, 4-[4-(4-isopropylpiperazin-1-yl)phenyl]-6-methyl-2-[(2-methyl-7-azaspiro[3.5]nonan-7-yl)methyl]-1H-pyrrolo[3,2-c]pyridine], the inhibition at 1 µM is 96.7%.

With `CC(C)N1CCN(c2ccc(-c3nccc4[nH]c(CN5CC(F)C5)cc34)cc2)CC1` [Example A16, 2-[(3-fluoroazetidin-1-yl)methyl]-4-[4-(4-isopropylpiperazin-1-yl)phenyl]-1H-pyrrolo[3,2-c]pyridine], the inhibition at 1 µM is 100%. As for `c1cc2[nH]c(CN3CCOCC3)cc2c(-c2ccc(N3CCN(C4COC4)CC3)cc2)n1` [Example A81, 4-[[4-[4-[4-(oxetan-3-yl)piperazin-1-yl]phenyl]-1H-pyrrolo[3,2-c]pyridin-2-yl]methyl]morpholine], the figure is 64%; as for `CC(C)N1CCN(c2cccc(-c3nccc4[nH]c(CN5CCOCC5)cc34)c2)CC1` [Example A57, 4-[[4-[3-(4-isopropylpiperazin-1-yl)phenyl]-1H-pyrrolo[3,2-c]pyridin-2-yl]methyl]morpholine], 96.9%; as for `Cc1cc2c(cc(CCN3CCOCC3)n2C)c(-c2ccc(N3CCN(C(C)C)CC3)cc2C)n1` [Example B15, 4-[2-[4-[4-(4-isopropylpiperazin-1-yl)-2-methyl-phenyl]-1,6-dimethyl-pyrrolo[3,2-c]pyridin-2-yl]ethyl]morpholine], 93.3%.
